{
  "source": "patent US5594030A",
  "about": "“Controlled release pharmaceutical compositions based on one or more pharmaceutically acceptable salts of gamma hydroxy-butyric acid” (Laboratorio Farmaceutico C.T. S.r.l., priority 1993, dated 1997)",
  "key": {"[1]": {"test": "In vitro dissolution test (paddle test)", "assay_type": "physicochemical", "settings": "aqueous liquid solutions / formulations on the market; instantaneous", "experimental": "The evaluation test in vitro is carried out with a dissolution test consistent with the apparatus described in the European Pharmacopoeia 2° ed. or UPS XXII ed. (\"paddle test\"). The dosage, evaluated in the time after 1, 2, 3, 4, 6 and 8 hours, is carried out with 1N hydrochloric acid, taking a known amount from the dissolution medium.\nmedium: distilled H20 900 ml.\nData obtained are the following (expressed as GHBNa percentage with respect to the total tablet content): […]"}, "[2]": {"test": "GHB average pharmacokinetic parameters after oral administration of different doses (immediate release) to 8 healthy volunteers", "assay_type": "in vivo, human (healthy volunteers)", "settings": "for Tmax / half-life / CL/F / MRT: human, plasma; for absorption: result in words, immediate release / aqueous liquid solutions; for CL/F: read-out: CLo (oral clearance); for MRT: read-out: MRT (average residence time) (converted); for AUC: average (SD)", "excerpt": "GHB Average pharmacokinetic parameters after\nadministration of different doses to 8 healthy volunteers"}, "[3]": {"settings": "cited from earlier work"}, "[4]": {"test_system": "enzymes having the --SH group", "settings": "result in words; cited from earlier work"}, "[5]": {"test": "fraction of unbound drug (dialysis)", "assay_type": "in vitro ADME", "settings": "predialysis concentration of 25 μg/ml; read-out: fu (fraction of unbound drug)", "experimental": "^c determined at a predialysis concentration of 25 μg/ml\npeak, tmax absorption time to the peak, fu fraction of unbound"}, "[6]": {"settings": "oral 25 mg/kg, normalized at 12.5 mg/kg"}, "[7]": {"settings": "oral 50 mg/kg, normalized at 12.5 mg/kg"}},
  "note": "Structures can show the parent of a compound that is named as a salt. Where two headings read alike, the source gives them in different places.",
  "data": [
    {"smiles": "O=C(O)CCCO", "note": "[GHBNa, sodium salt of gamma hydroxy butyric acid]", "values": [
      {"measurement": "release of the active substance", "setting": "[1]", "result": 100, "unit": "%"},
      {"measurement": "Tmax", "setting": "[2]; po, about, summary of table 1 and FIG. 1, read-out: maximum peak after the administration", "result": "30 to 45", "unit": "min"},
      {"measurement": "half-life", "setting": "[2]; po, summary of table 1 and FIG. 1, read-out: half life", "result": "20 to 25", "unit": "min"},
      {"measurement": "absorption", "setting": "[2]", "result": "rapidly absorbed"},
      {"measurement": "absorption", "setting": "[2]; listed as sodium gamma hydroxy butyrate", "result": "absorbed quickly"},
      {"measurement": "elimination time", "setting": "[2]; summary of table 1 and FIG. 1", "result": "4 to 5", "unit": "h"}
    ]},
    {"smiles": "CCN(CC)C(=S)SSC(=S)N(CC)CC", "note": "[Disulfiram]", "values": [
      {"measurement": "toxicity", "setting": "[3]; Disulfiram by itself, therapeutical doses", "result": "scarcely toxic"},
      {"measurement": "blood acetaldehyde concentration vs alcohol dose alone", "setting": "[3]; alcohol administered after Disulfiram pretreatment", "result": "five to ten times higher"},
      {"measurement": "severe events occurred", "setting": "[3]; as a consequence of Disulfiram treatment", "result": "depression, myocardial infarction, sudden and unexplained fatalities"},
      {"measurement": "side effects (may cause)", "setting": "[3]; in vivo", "result": "acneiform eruptions, allergic dermatitis, urticaria, lassitude, fatigue, tremor, restlessnes, reduced sexual potency, gastric or digestive disturbances"},
      {"measurement": "enzyme inhibition", "setting": "[4]", "result": "alters the activity of all enzymes having the --SH group"}
    ]},
    {"smiles": "O=C(O)CCCO", "note": "[GHB, gamma hydroxy butyric acid]", "values": [
      {"measurement": "fraction unbound", "setting": "[5]", "result": 0.99},
      {"measurement": "Tmax", "setting": "[2]; oral 12.5 mg/kg, average value (range), read-out: tmax (absorption time to the peak) (converted)", "result": 25, "unit": "min"},
      {"measurement": "CL/F", "setting": "[2]; oral 12.5 mg/kg", "result": 14, "unit": "mL/min/kg"},
      {"measurement": "MRT", "setting": "[2]; oral 12.5 mg/kg", "result": 45, "unit": "min"},
      {"measurement": "half-life", "setting": "[2]; oral 12.5 mg/kg, read-out: t^1/2 z (final halflife time)", "result": 20, "unit": "min"},
      {"measurement": "Tmax", "setting": "[2]; oral 25 mg/kg, average value (range), read-out: tmax (absorption time to the peak) (converted)", "result": 30, "unit": "min"},
      {"measurement": "CL/F", "setting": "[2]; oral 25 mg/kg", "result": 9, "unit": "mL/min/kg"},
      {"measurement": "MRT", "setting": "[2]; oral 25 mg/kg", "result": 53, "unit": "min"},
      {"measurement": "half-life", "setting": "[2]; oral 25 mg/kg, read-out: t^1/2 z (final halflife time)", "result": 22, "unit": "min"},
      {"measurement": "Tmax", "setting": "[2]; oral 50 mg/kg, average value (range), read-out: tmax (absorption time to the peak) (converted)", "result": 45, "unit": "min"},
      {"measurement": "CL/F", "setting": "[2]; oral 50 mg/kg", "result": 7, "unit": "mL/min/kg"},
      {"measurement": "MRT", "setting": "[2]; oral 50 mg/kg", "result": 70, "unit": "min"},
      {"measurement": "half-life", "setting": "[2]; oral 50 mg/kg, read-out: t^1/2 z (final halflife time)", "result": 23, "unit": "min"},
      {"measurement": "Cmax", "setting": "[2]; oral 12.5 mg/kg", "result": "23 (9) μg/ml"},
      {"measurement": "AUC", "setting": "[2]; oral 12.5 mg/kg, 8 healthy volunteers", "result": "905 (443) μg/ml min"},
      {"measurement": "Cmax", "setting": "[2]; [6]", "result": "23 (11) μg/ml"},
      {"measurement": "AUC", "setting": "[2]; [6]", "result": "1271 (560) μg/ml min"},
      {"measurement": "Cmax", "setting": "[2]; [7]", "result": "20 (7) μg/ml"},
      {"measurement": "AUC", "setting": "[2]; [7]", "result": "1565 (548) μg/ml min"}
    ]}
  ]
}
